{
  "source": "patent US20120157396A1",
  "about": "“PYRAZINAMIDE FOR IMMUNOSTIMULATION AND THE TREATMENT OF LEISHMANIASES” (priority 2009, published 2012)",
  "key": {"[1]": {"settings": "PZA-treated children, Zhu et al.; cited from earlier work"}, "splenocytes": {"test_system": "splenocytes", "test": "Lymphoproliferative response of splenocytes from L. donovani-infected treated mice", "format": "cell-based, C57BL/6 mice", "settings": "PZA-treated mice, dose dependent", "method": "FIG. 5. PZA increases proliferation in treated splenocytes. Positive proliferation (measured as loss of CFSE staining at day 5) at 3 wk post infection in CFSE-stained splenocytes from C75BL/6 mice infected with L. donovani and treated with drug vehicle (3.8% DMSO, control) or increasing concentrations of PZA (n=3±SD), following in vitro restimulation with 25 μg/ml leishmanial antigen or 2 μg/ml concanavalin A.\nVL typically induces T cell anergy toward leishmanial antigens."}, "L. donovani": {"test_system": "L. donovani", "method": "To induce visceral leishmaniasis, we inoculated mice (n=8) intravenously with 5×10^6 L. donovani 1S and treated them with PZA (900-150 mg/kg) for 3 wks, 5 days/wk. The lowest dose was equivalent to dose of PZA used in humans (2 g/day). A group of mice treated with vehicle (3.8% DMSO in water) was included as a control. C57BL/6 mice infected with L. donovani typically show detectable parasites in liver and spleens for 8-12 wk. […] We euthanized mice 3 wks after the initiation of the experiment and determined total body weight, liver and spleen weights, and number of parasites in livers."}, "[2]": {"test_system": "dendritic cells lacking TLR-2 and -4", "test": "Activation of bone marrow-derived dendritic cells from TLR-2/-4 double knock out mice", "format": "cell-based", "method": "FIG. 11. A. The immunostimulatory effect of PZA is independent of TLR engagement. Mean fluorescence values for the expression of CD80, CD86, MHC Class I and MHC Class II and B. IL-12, IL-10 and iNOS expression determined by flow cytometry in bone marrow-derived dendritic cells from TLR-2/-4 double knock out mice, infected or not with L. major, and treated with 10 and 100 μM PZA. Uninfected cells were treated with 10 U IFN-γ/100 ng/ml LPS as a positive control of activation. Unstimulated, untreated cells are also shown. Data are expressed as mean±standard deviation of n=3 determinations. *: Statistically significant P≦0.03; **: Statistically significant P≦0.005; ***: Statistically significant, P≦0.0001 when compared to the group infected with L. major and untreated.\nIn this experiment, we treated the dendritic cells as described above, in the presence or absence of L. major infection. Again as a positive control, cells were primed with IFN-γ and LPS. […] In the same way, the expression of IL-12, IL-10 and iNOS was increased in treated cells, irrespective of infection (FIG. 11B)."}, "[3]": {"settings": "mouse models of VL (FIG. 8 legend)"}},
  "data": [
    {"smiles": "NC(=O)c1cnccn1", "note": "[PZA, pyrazinamide]", "values": [
      {"measurement": "serum concentration", "setting": "[1]", "result": 41000, "unit": "ng/mL"},
      {"measurement": "proliferation of splenocytes to leishmanial antigens and concanavalin A", "setting": "splenocytes", "result": "recovered their ability to proliferate"},
      {"measurement": "size of livers and spleens", "setting": "L. donovani; PZA 900-150 mg/kg, 3 wks", "result": "significantly reduced"},
      {"measurement": "liver parasites", "setting": "L. donovani; PZA at all doses tested (900-150 mg/kg), 3 wks", "result": "significantly decreased"},
      {"measurement": "hepatomegaly and splenomegaly", "setting": "L. donovani; [3]", "result": "prevented hepatomegaly and splenomegaly"},
      {"measurement": "reduction of liver parasites", "setting": "L. donovani; [3]", "result": "2-4 log 10"},
      {"measurement": "expression of activation markers and MHC Class molecules", "setting": "[2]; 10 and 100 μM PZA, dose-dependent, TLR-2/-4 double knock out dendritic cells", "result": "increased expression of activation markers and MHC Class molecules"},
      {"measurement": "expression of IL-12, IL-10 and iNOS", "setting": "[2]; PZA-treated cells, irrespective of infection", "result": "increased"}
    ]}
  ]
}
